The subject of experiment [1] is ACTB^OiCasp9-mPlum;NANOG^iCasp9-YFP hPSCs and differentiated liver, bone and neural progenitors. In words: Killing of ACTB^OiCasp9-mPlum;NANOG^iCasp9-YFP hPSCs and differentiated derivatives by AP21 or AP20 (alamar blue). It is filed as cell-based, human. The settings on record: dual-transgenic line; 1 nM, 24 hours. How it is done: FIG. 6: Rationale, design and implementation of the ACTB^OiCasP9-mPlum safety switch. A) Intended application of the dual ACTB^OiCasp9-mPlum;NANOG^iCasp9-YFP safeguard. B) Cas9 RNP/AAV6-based knock-in strategy for ACTB^iCasp9-mPlum targeting, which was performed in the NANOG^iCasp9-YFP hESC line. C) 5×10^5 ACTB^OiCasp9-mPlum; NANOG^iCasp9-YFP hESCs were treated with control media or 1-1000 nM AP21967 for 24 hours. Cell viability was analyzed using alamar blue. D) ACTB^OiCasp9-mPlum;NANOG^iCasp9-YFP and ACTB^TK-mPlum; NANOG^iCasp9-YFP hESCs (negative control), in addition to their respective differentiated derivatives, were treated for 24 hours with 1 nM of AP21967. E) 5×10^5 ACTB^OiCasp9-mPlum; NANOG^iCasp9-YFP hESCs, and their respective differentiated derivatives, were treated with control media, 1 nM of AP21967 or and 1 nM of AP20187 for 24 hours. Surviving cells were analyzed by alamar blue. F) 10^6 ACTB^OiCasp9-mPlum;NANOG^iCasp9-YFP hESCs engineered to express CAG-AkaLuciferase were treated with control media or 1 nM AP20187 for 24 hours, and then subcutaneously transplanted into the right and left dorsal flanks of NOD-SCID Il2rg^−/− mice (10^6 cells per flank). 4 weeks post-transplant, teratomas formed and AP21967 was intraperitoneally administered once at 10 mg/kg. […] Total flux (photons/sec) was measured for each animal and was averaged.
A general note: The colour change of resazurin is a common sign of viable cells or microbes.

Experiment [2] relates to ACTB^TK-mPlum;NANOG^iCasp9-YFP hESCs (iCaspase9-expressing cells). Briefly: AP21967 treatment of iCaspase9-expressing cells (cross-reactivity check). Type of experiment: cell-based, human. As to conditions: AP21967 24 hours.
The test system of experiment [3] is H9 undifferentiated hPSCs and hPSC-derived neural, liver, and sclerotome cells. In words: YM155 treatment, cell viability by alamar blue. It is filed as cell-based, human. As to conditions: YM155 10 nM or 2 μM, 24 hours. An excerpt: FIG. 7: Marker expression during hPSC differentiation and evaluation of past safety switches (related to FIG. 2). A) i) Flow cytometry analysis of widely-used pluripotency surface markers SSEA-3, SSEA-4, TRA-1-60, TRA-1-81 and PODXL1^20,21 before and during differentiation into endodermal, mesodermal and ectodermal lineages for 1-6 days. Positive gates were set based on unstained negative controls. ii) Gene expression analysis of previously reported safety system genes CDK1, TERT, SCD1, PODXL1 and SURVIVIN before and during differentiation into endodermal, mesodermal and ectodermal lineages. Expression of lineage markers is depicted normalized to the reference gene YWHAZ (i.e., YWHAZ=1.0). B) Widely-used pluripotency surface markers such as SSEA-3, SSEA-4, TRA-1-60, TRA-1-81 and PODXL1^20,21 were not exclusive to pluripotent cells. […] Unstained hESCs (top row; grey shading) were used as a negative control to set positive gates (dotted vertical lines). […] D) H9 undifferentiated hPSCs and hPSC-derived neural, liver, and sclerotome cells (generated after 6 days of differentiation) were treated for 24 hours with YM155 (either 10 nM or 2 μM), a small molecule SURVIVIN inhibitor, and cell viability was assessed using alamar blue.

Experiment [4] deals with ACTB^HSV-TK-mPlum;NANOG^iCasp9-YFP hPSCs. In words: Quantification of cell death after ganciclovir treatment of hPSCs. It is filed as cell-based, human. How it is done:
(§1) FIG. 5: Implementation of the ACTB^TK-mPlum safety switch. A) NANOG^iCasp9-YFP;ACTB^TK-mPlum hESCs were treated with ganciclovir (or left untreated) for 24 hours, and subsequently ganciclovir was withdrawn and hESCs were cultured for 1 week in mTeSR1 to detect any surviving cells and to allow them to regrow. […] N.D.=not detected. B) NANOG^iCasp9-YFP;ACTB^TK-mPlum hESCs were differentiated into day 6 liver, sclerotome and neural progenitors and treated with ganciclovir at the indicated doses for the last 24 hours of differentiation. Cell survival was analyzed by counting at day 6 of differentiation. C) 10^6 NANOG^iCasp9-YFP; ACTB^TK-mPlum hESCs engineered to express CAG-AkaLuciferase were treated with control media or 1 nM AP20187 for 24 hours, and then subcutaneously transplanted into the right and left dorsal flanks of NOD-SCID Il2rg^−/− mice (10^6 cells per flank). After 3 weeks post-transplant, teratomas formed in vivo and ganciclovir was administered daily at 50 mg/kg until week 7 post-transplant. Bioluminescent imaging of mice was conducted weekly for 7 weeks. Total flux (photons/sec) was measured for each animal and were averaged.
Quantification of cell death after ganciclovir treatment. […] At the end of 6 days of culture in mTeSR1 alone, the number of surviving live cells was counted.

Experiment [5] deals with teratomas from ACTB^HSV-TK-mPlum;NANOG^iCasp9-YFP hPSCs. In words: Elimination of teratomas using ganciclovir in vivo (bioluminescent imaging). Details: species or system NSG mice. As to conditions: week 7 post-transplantation, 4 weeks after initiating ganciclovir 50 mg/kg daily. The method, then: as §1, with “After 3 weeks post-transplant, teratomas formed in vivo and ganciclovir was administered daily at 50 mg/kg until week 7 post-transplant. Bioluminescent imaging of mice was conducted weekly for 7 weeks.” left out
FIG. 10: Supporting data for ACTB^TK-mPlum safety switch (related to FIGS. 4-5). […] Total flux (photons/sec) was measured for each animal.
Bioluminescent imaging. […] Subsequent image analysis was done in Aura with regions of interest (ROIs) drawn for each mouse to calculate Total Flux (photons/sec) in order to quantify teratoma growth over time. […]

The test system of experiment [6] is ACTB^HSV-TK-mPlum;NANOG^iCasp9-YFP hPSC-derived liver, bone and forebrain progenitors. In words: Ganciclovir treatment of differentiated progenitors, cell counting at day 6. The settings on record: ganciclovir for last 24 hours of differentiation. It is filed as cell-based, human.

The structures appear in SMILES notation.

With `CO[C@H]1[C@@H](O)[C@H](C)C[C@H](C)/C=C/C=C/C=C(\C)[C@@H](c2c[nH]c3c(C)cccc23)C[C@@H]2CC[C@@H](C)[C@@](O)(O2)C(=O)C(=O)N2CCCC[C@H]2C(=O)O[C@H]([C@H](C)C[C@@H]2CC[C@@H](O)[C@H](OC)C2)C[C@H](O)[C@H](C)/C=C(\C)[C@H]1O` [AP21], the “killing of undifferentiated and differentiated cells” value in experiment [1] is “kill both undifferentiated hPSCs and differentiated liver, bone and neural progenitors”. For the same molecule, the “killing of iCaspase9-expressing cells” value in experiment [2] is listed as “does not kill iCaspase9-expressing cells”.
With `COCCn1c2c([n+](Cc3cnccn3)c1C)C(=O)c1ccccc1C2=O` [YM155], the “cell killing (viability)” value in experiment [3] was “killed both undifferentiated and differentiated hPSCs”.
Take `Nc1nc(O)c2ncn(COC(CO)CO)c2n1` [ganciclovir]: the “in vitro proliferation of hPSCs” value in experiment [4] (ganciclovir 24 hours, then 1 week in mTeSR1) is “broadly blocked the in vitro proliferation”. Moreover, in experiment [4] (three days post-GCV treatment (0.5-2 μM, 24 hours)), the “cell death in hPSCs” value is on record as “cell death was observed”. Besides, the “detectable teratomas by bioluminescent imaging” value in experiment [5] was “no ganciclovir-treated mice had detectable teratomas”. In addition, the “in vitro proliferation of derivative liver, bone and forebrain progenitors” value in experiment [6] is “broadly blocked the in vitro proliferation”.

The record behind these values is US20230085945A1, “ORTHOGONAL SAFETY SWITCHES TO ELIMINATE GENETICALLY ENGINEERED CELLS” (The Board of Trustees of the Leland Stanford Junior …, priority 2020, published 2023).
